Laboratory results: patent US8501749B2, “Azaquinazolinediones chymase inhibitors” (Boehringer Ingelheim International GmbH, priority 2009, dated 2013)

Biological target: Chymase (Homo sapiens (Human), UniProt P23946)
Conditions: read-out: Chymase IC50; fluorogenic rhodamine 110 peptide substrate, 1 hour at 28° C., 1% DMSO

Chain of Chymase (P23946 22-247): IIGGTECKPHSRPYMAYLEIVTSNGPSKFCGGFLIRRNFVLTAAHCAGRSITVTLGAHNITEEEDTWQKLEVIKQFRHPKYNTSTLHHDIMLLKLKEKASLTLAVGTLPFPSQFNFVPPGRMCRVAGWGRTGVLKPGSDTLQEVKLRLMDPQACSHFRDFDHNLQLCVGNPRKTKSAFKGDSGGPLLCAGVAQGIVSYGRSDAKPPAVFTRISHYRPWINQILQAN

IC50: 0.4 nM
Compound: CC[C@H](CC(=O)O)n1c(=O)c2ncccc2n(Cc2cn(C)c3cc(C)cc(C)c23)c1=O [(R)-3-[2,4-Dioxo-1-(1,4,6-trimethyl-1H-indol-3-ylmethyl)-1,4-dihydro-2H-pyrido[3,2-d]pyrimidin-3-yl]-pentanoic acid]
